Measured values reported in patent publication US4703058A, “β-methylene furanethanamines and use as anti-hypertensive agents” (Merrell Dow Pharmaceuticals Inc., priority 1986, dated 1987).

What was measured:
[1] = biological target: T1, dopamine β-hydroxylase (DBH) (Bos taurus, UniProt P15101); assay: DBH inhibitory activity - in vitro (time-dependent inactivation; tyramine as substrate, oxygen uptake by polarographic electrode); assay type: biochemical
T1 sequence (P15101 1-610): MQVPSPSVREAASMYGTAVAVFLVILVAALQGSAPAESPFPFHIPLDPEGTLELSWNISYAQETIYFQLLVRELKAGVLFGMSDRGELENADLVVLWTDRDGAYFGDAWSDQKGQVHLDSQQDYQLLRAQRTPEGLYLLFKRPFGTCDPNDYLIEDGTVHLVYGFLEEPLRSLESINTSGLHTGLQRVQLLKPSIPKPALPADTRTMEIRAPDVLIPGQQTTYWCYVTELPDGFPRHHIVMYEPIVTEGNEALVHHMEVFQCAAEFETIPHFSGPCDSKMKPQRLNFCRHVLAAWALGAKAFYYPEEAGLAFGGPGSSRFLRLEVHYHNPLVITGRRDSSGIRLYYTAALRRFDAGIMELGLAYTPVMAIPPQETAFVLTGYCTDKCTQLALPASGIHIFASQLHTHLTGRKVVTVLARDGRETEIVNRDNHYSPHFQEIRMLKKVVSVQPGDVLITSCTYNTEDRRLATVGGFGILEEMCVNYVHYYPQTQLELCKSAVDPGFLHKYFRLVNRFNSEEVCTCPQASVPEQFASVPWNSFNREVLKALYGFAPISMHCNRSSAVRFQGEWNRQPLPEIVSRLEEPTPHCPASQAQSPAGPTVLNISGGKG
Experimental: The dopamine β-hydroxylase inhibitory properties of the compounds of this invention can readily be determined by standard and well known procedures such as those procedures set forth in U.S. Pat. No. 4,415,191. For example, determination of whether the DBH inhibition allows time-dependent kinetics is exemplified by the procedure wherein enzymatic oxygenation by DBH is determined in aqueous solution in the presence of molecular oxygen, an electron donor such as ascorbate, and the necessary cofactors for the enzyme at a pH of 5 and a temperature of 20°-40° C., preferrably 37° C. The test compound is added at the desired concentration, and the system is incubated. At different time intervals, aliquots are taken and DBH activity is measured using tyramine as the substrate and the reaction followed by measuring the oxygen uptake using a polarographic electrode and an oxygen monitor by the method of S. May et al., J. Biol. Chem. 256, 2258 (1981). The inhibition constants for the inactivation of DBH by each compound are then determined by conventional procedures such as the method of Kitz and Wilson, J. Biol. Chem. 237, 3245 (1962). When the compound shown in Table I was tested according to the above described procedure, the DBH inhibitory activity increased as a function of the time of incubation. The initial rate of decrease of activity increased with increasing concentration of inhibitor. The results in Table I indicate that β-methylene-2-furanethanamine is potent as illustrated by the rapid rate of inactivation (kinact) and low inhibition contant (KI).

hypertensive rats = assay: Antihypertensive activity - in vivo (hypertensive rats, blood pressure monitored continuously)
Experimental: The ability of the compounds of this invention to lower blood pressure can be determined in vivo using hypertensive rats according to standard and well known procedures. The test compound is administered intraperitoneally (ip) or orally (po) to rats and the blood pressure monitored continuously. Since DBH is a major enzyme in the synthetic pathway of the catecholamines, it would be expected that the presence of an inhibitor would act to decrease the amount of catecholamines produced, and thereby have an antihypertensive effect.

DBH inhibition, result in words (potency) ([1]; in words, from Table I): potent
Ki ([1]; inactivation of DBH, Kitz and Wilson method, pH 5, 20°-40° C., preferably 37° C., tyramine substrate): 8 mM
kinact ([1]; rate of inactivation of DBH, Kitz and Wilson method, pH 5, 20°-40° C., preferably 37° C., tyramine substrate): 6.67e-05 s⁻¹
Compound: C=C(CN)c1ccco1 [β-Methylene-2-Furanethanamine]
Maximum % Change Mean Blood Pressure (hypertensive rats; 10 mg/kg (ip)): 18%
Maximum % Change Mean Blood Pressure (hypertensive rats; 30 mg/kg (ip)): 32%
